For one series, the system named is wild type mice. In words: Dynamic in vivo PET/CT imaging after intravenous injection. Conditions: i.v. The arrangement: species or system mouse. The method, then:
After intravenous injection of [^18F]AGAL in wild type mice, the radioactivity rapidly accumulated in key organs such as the kidneys, liver, and heart, with the kidneys having the highest peak standardized uptake value (SUV ~18) at 3 min followed by rapid washout from all organs to lower than 1 SUV by 30 min and remaining low until the end of the 90 min scan (Figure 6A,B).
Figure 6 Dynamic in vivo PET/CT imaging in wild type mice after [^18F]AGAL intravenous injection. Time course of average radioactivity concentrations (n = 4, Mean ± SD) from various organs shown for full 90 min (A) and first 10 min (B) after tracer injection. (C) Representative coronal sections of PET/CT scan images from a wild type mouse with frames averaged between 0–2 min, 2–10 min, 10–30 min, 30–60 min, and 60–90 min are shown. SUV: Standardized uptake value.
[^18F]AGAL PET imaging was performed on a dedicated small animal PET/CT scanner (Siemens Multimodality Inveon, Siemens Medical Solutions USA Inc., Knoxville, TN, USA). The wild-type mice (n = 3, male 129S6) were anesthetized with 3% isoflurane/medical air inhalation prior to the radiotracer injection and throughout the scan duration. A bolus intravenous injection (via the lateral tail vein) of [^18F]AGAL (~7.4 MBq) was administered followed by dynamic PET scans in list mode for 90 min. After the PET acquisition, a low-dose CT scan was acquired (80 kVp, 0.5 mA) for anatomical reference and to provide guidance for the delineation of selected tissues volume of interest (VOI). The acquired PET data were sorted into 0.5 mm sinogram bins and 25 time frames (4 × 15 s, 4 × 60 s, and 17 × 300 s) for image reconstruction using FORE/3D-OSEM-MAP. The reconstructed PET/CT images were analyzed with the Siemens Inveon Research Workplace software v4.0 or other appropriate software. The radioactivity retention within the selected tissue was obtained from mean voxel intensity values within the VOI and then converted to megabecquerels per milliliter using the calibration factor determined for the Inveon PET System. […]

Series [1] in a line: Stability of the formulated product by analytical HPLC. The series is classed as physicochemical. The method, then: Stability of the product was monitored via analytical HPLC over time.
Approximately 2000 mCi of [^18F]fluoride was produced on a GE PETtrace 800 cyclotron and delivered to the ^18F target delivery vial of a GE FX2 N radiosynthesis module (Figure 4). The irradiated target water was passed through a pre-conditioned Sep-PAK Light QMA Cartridge to trap [^18F]fluoride, followed by elution from the cartridge into reactor 1 using 3 mg […] and 13 mg Cryptand 222 in 0.6 mL of 50% acetonitrile in water. The contents of reactor 1 were dried via azeotropic distillation using a combination of heating, helium flow, and vacuum. An additional 1 mL of acetonitrile was introduced to reactor 1 and the azeotropic drying process was repeated. The reactor temperature was then reduced to 30 °C, followed by introduction of 4-pentynyl p-tosylate (10 mg, ABX GmbH, Radeberg, Germany) in 1.0 mL acetonitrile (anhydrous). The reactor was then sealed and heated to 110 °C and allowed to react with stirring for 3 min. Reactor 1 was then opened to reactor 2, with the reactor 1 needle in the “up” position. […]

Molecules are shown by their SMILES.

On to `O=C(CCCCCCCn1cc(CCC[18F])nn1)N1C2C(O)C(O)C(O)C(CO)C21` (centres unmarked) [[^18F]AGAL], for which the “bone uptake (tracer defluorination)” value in the series with wild type mice (PET images) is “No bone uptake”. Further, the “peak standardized uptake value (SUV), kidneys” value with wild type mice (at 3 min) is listed as ~ 18 SUV. Moreover, the “standardized uptake value after washout, all organs” value with wild type mice (by 30 min until end of 90 min scan) is given as “lower than 1 SUV”. Also, the “decrease in RCP” value is “less than 3%” in series [1] (after 6 h, with sodium ascorbate in the formulation (5 mg/mL)) and 5–8% in series [1] (after 6 h at room temperature, 10% EtOH in saline).

Values taken from PMC10609273, “Radiosynthesis and Early Evaluation of a Positron Emission Tomography Imaging Probe [^18F]AGAL Targeting Alpha-Galactosidase A Enzyme for Fabry Disease” (Molecules, 2023).
